# Source: paper PMC12715756 (ACS Chemical Neuroscience, 2025)
# System: male Swiss CD-1 mice
# Assay: Open field test (thigmotaxis)
# Type: in vivo
# Conditions: 10 mg/kg i.p., vs saline
# Experimental: Male Swiss CD-1 mice (Janvier, Le Genest, France), weighing 30–35 g and aged 6–8 weeks, were used for HLA, thigmotaxis, CPP, and core body temperature experiments. Animals were housed under temperature-controlled conditions (22 ± 1 °C) with a 12 h light/dark cycle and had free access to food and water (standard laboratory diet, Panlab SL, Barcelona, Spain). Doses for HLA, thigmotaxis, CPP, and core body temperature experiments were calculated based on the free base form of each compound. […] Doses for HTR experiments were calculated based on the respective salt forms of the compounds.
# A habituation phase was performed to reduce the stress and novelty associated with handling and injection. […] On the test day, their horizontal locomotor activity (HLA) was measured. […] HLA was video monitored for 2 h, and a specific tracking software (Smart 3.0 Panlab, Barcelona, Spain) was used to measure their total traveled distance (in cm). Center Versus Periphery: The thigmotactic effects of the test compounds, widely considered as anxiety-like effects, were assessed through an OF test. […] The time spent, in seconds, in the center (8 × 8 cm) or the periphery of the arena was monitored for 2 h (Smart 3.0 Panlab, Barcelona, Spain).
structure (smiles),measurement,value
"CC(N)Cc1ccc2c(c1)SCO2 (stereo not shown) [SDA, 1-(1,3-benzoxathiol-5-yl)propan-2-amine]",time spent in the center of the arena (thigmotaxis),significantly decreased the time spent in the center of the arena
